Key:
[1] = molecular target: Tyrosine-protein kinase receptor Tie-1 (Homo sapiens) (UniProt P35590); conditions: Compound concentration 1000.0 nM
[2] = molecular target: Muscarinic acetylcholine receptor M5 (Homo sapiens) (UniProt P08912); conditions: Compound concentration 10.0 uM
[3] = molecular target: D(2) dopamine receptor (Homo sapiens) (UniProt P14416); conditions: Compound concentration 10.0 uM
[4] = test system: Receptor-type tyrosine-protein kinase FLT3 (Homo sapiens), P36888 [UNDEFINED MUTATION]; conditions: Compound concentration 1000.0 nM
[5] = molecular target: Phosphatidylinositol 4,5-bisphosphate 3-kinase catalytic subunit alpha isoform (Homo sapiens) (UniProt P42336); conditions: Compound concentration 1000.0 nM
Chain of Phosphatidylinositol 4,5-bisphosphate 3-kinase catalytic subunit alpha isoform (Homo sapiens) (P42336 whole entry, canonical isoform): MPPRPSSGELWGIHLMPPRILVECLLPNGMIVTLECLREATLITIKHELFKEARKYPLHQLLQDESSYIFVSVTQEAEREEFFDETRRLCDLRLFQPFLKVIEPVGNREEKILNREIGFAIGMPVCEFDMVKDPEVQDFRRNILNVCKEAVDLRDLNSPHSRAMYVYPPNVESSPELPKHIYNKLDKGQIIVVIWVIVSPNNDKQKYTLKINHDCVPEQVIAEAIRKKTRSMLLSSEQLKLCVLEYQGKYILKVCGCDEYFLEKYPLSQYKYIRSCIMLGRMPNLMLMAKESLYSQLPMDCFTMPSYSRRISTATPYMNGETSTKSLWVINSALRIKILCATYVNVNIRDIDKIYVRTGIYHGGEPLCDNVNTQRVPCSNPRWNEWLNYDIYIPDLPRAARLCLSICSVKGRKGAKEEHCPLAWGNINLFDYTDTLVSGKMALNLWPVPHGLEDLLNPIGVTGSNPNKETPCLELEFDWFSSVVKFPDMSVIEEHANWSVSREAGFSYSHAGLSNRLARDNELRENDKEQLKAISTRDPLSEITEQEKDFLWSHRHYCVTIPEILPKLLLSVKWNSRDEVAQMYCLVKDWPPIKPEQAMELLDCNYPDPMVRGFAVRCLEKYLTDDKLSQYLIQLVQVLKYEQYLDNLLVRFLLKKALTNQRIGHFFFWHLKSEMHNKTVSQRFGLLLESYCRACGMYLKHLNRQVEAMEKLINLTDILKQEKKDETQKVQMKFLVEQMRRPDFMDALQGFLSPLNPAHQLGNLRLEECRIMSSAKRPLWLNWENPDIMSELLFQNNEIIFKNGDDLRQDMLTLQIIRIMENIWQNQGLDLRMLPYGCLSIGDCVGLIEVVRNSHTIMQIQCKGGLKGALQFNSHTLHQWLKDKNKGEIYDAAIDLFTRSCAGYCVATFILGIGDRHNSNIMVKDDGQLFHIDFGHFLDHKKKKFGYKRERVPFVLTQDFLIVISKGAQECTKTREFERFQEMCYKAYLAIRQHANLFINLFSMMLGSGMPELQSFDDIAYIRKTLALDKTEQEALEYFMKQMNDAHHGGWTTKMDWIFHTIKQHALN

[6] = molecular target: Alpha-2C adrenergic receptor (Homo sapiens) (UniProt P18825); conditions: Compound concentration 10.0 uM
Chain of Alpha-2C adrenergic receptor (Homo sapiens) (P18825 whole entry): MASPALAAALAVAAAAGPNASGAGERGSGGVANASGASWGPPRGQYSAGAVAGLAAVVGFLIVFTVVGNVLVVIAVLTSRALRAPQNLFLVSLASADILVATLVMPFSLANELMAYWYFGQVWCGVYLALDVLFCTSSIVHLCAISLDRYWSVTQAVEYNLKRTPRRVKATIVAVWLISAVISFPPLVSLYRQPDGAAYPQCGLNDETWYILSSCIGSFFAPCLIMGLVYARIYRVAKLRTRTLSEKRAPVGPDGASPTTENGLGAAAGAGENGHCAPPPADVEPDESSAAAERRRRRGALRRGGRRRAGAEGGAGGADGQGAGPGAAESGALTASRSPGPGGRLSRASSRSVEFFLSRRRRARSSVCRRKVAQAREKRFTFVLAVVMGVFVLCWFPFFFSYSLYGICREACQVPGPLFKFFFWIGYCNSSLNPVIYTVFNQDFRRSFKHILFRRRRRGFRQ

[7] = molecular target: Mitogen-activated protein kinase kinase kinase 10 (Homo sapiens) (UniProt Q02779); conditions: Compound concentration 1000.0 nM
[8] = test system: Mast/stem cell growth factor receptor Kit (Homo sapiens), P10721 [D816V]; conditions: Compound concentration 1000.0 nM
[9] = molecular target: Serine/threonine-protein kinase DCLK1 (Homo sapiens) (UniProt O15075); conditions: Compound concentration 1000.0 nM
[10] = molecular target: Cytoplasmic tyrosine-protein kinase BMX (Homo sapiens) (UniProt P51813); conditions: Compound concentration 1000.0 nM
[11] = molecular target: Tyrosine-protein kinase JAK3 (Homo sapiens) (UniProt P52333); conditions: Compound concentration 1000.0 nM
[12] = molecular target: Serine/threonine-protein kinase LATS2 (Homo sapiens) (UniProt Q9NRM7); conditions: Compound concentration 1000.0 nM
Chain of Serine/threonine-protein kinase LATS2 (Homo sapiens) (Q9NRM7 whole entry): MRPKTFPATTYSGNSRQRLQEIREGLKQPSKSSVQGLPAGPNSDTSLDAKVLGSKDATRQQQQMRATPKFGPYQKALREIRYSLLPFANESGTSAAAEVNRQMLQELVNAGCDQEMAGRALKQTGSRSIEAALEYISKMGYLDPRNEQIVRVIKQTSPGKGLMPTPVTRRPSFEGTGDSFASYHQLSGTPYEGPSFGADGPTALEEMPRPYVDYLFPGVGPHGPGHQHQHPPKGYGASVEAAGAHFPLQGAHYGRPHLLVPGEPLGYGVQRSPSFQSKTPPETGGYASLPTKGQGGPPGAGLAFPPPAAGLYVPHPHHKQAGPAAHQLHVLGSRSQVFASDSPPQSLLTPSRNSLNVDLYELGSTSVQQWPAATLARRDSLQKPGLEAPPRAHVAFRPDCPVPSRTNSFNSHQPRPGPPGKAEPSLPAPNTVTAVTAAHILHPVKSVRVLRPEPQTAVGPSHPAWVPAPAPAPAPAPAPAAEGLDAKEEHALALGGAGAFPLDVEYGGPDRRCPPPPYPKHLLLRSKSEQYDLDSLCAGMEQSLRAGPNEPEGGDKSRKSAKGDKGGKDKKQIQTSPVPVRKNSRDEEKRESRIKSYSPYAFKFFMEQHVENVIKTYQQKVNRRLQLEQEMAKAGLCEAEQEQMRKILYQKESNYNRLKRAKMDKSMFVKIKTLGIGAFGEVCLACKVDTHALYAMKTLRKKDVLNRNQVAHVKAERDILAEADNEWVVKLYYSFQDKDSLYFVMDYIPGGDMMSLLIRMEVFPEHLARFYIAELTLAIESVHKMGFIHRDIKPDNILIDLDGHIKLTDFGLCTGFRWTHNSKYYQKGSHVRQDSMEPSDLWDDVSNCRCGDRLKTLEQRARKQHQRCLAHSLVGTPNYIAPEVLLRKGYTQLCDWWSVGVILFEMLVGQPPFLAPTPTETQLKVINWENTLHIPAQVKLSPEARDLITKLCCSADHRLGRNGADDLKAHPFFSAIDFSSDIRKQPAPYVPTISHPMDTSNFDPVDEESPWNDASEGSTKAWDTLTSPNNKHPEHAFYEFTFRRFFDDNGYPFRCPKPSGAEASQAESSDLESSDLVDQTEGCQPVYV

[13] = molecular target: Cyclin-dependent kinase 18 (Homo sapiens) (UniProt Q07002); conditions: Compound concentration 1000.0 nM
[14] = molecular target: Serine/threonine-protein kinase ULK3 (Homo sapiens) (UniProt Q6PHR2); conditions: Compound concentration 1000.0 nM
[15] = molecular target: Microtubule-associated serine/threonine-protein kinase 1 (Homo sapiens) (UniProt Q9Y2H9); conditions: Compound concentration 1000.0 nM
[16] = molecular target: Serine/threonine-protein kinase STK11 (Homo sapiens) (UniProt Q15831); conditions: Compound concentration 1000.0 nM
[17] = molecular target: Dual specificity mitogen-activated protein kinase kinase 4 (Homo sapiens) (UniProt P45985); conditions: Compound concentration 1000.0 nM
[18] = molecular target: TGF-beta receptor type-1 (Homo sapiens) (UniProt P36897); conditions: Compound concentration 1000.0 nM
[19] = test system: Tyrosine-protein kinase ABL1 (Homo sapiens), P00519 [F317L]; conditions: Compound concentration 1000.0 nM
[20] = molecular target: Serine/threonine-protein kinase RIO1 (Homo sapiens) (UniProt Q9BRS2); conditions: Compound concentration 1000.0 nM
[21] = test system: Mast/stem cell growth factor receptor Kit (Homo sapiens), P10721 [V559D,V654A]; conditions: Compound concentration 1000.0 nM
[22] = molecular target: 5-hydroxytryptamine receptor 2A (Homo sapiens) (UniProt P28223); conditions: Compound concentration 10.0 uM
[23] = molecular target: Serine/threonine-protein kinase tousled-like 1 (Homo sapiens) (UniProt Q9UKI8); conditions: Compound concentration 1000.0 nM
[24] = molecular target: MAP/microtubule affinity-regulating kinase 3 (Homo sapiens) (UniProt P27448); conditions: Compound concentration 1000.0 nM
[25] = test system: Epidermal growth factor receptor (Homo sapiens), P00533 [UNDEFINED MUTATION]; conditions: Compound concentration 1000.0 nM
[26] = molecular target: Serine/threonine-protein kinase Nek2 (Homo sapiens) (UniProt P51955); conditions: Compound concentration 1000.0 nM
[27] = molecular target: Platelet-derived growth factor receptor beta (Homo sapiens) (UniProt P09619); conditions: Compound concentration 1000.0 nM
[28] = test system: Serine/threonine-protein kinase B-raf (Homo sapiens), P15056 [V600E]; conditions: Compound concentration 1000.0 nM
[29] = test system: Tyrosine-protein kinase ABL1 (Homo sapiens), P00519 [E255K]; conditions: Compound concentration 1000.0 nM
[30] = molecular target: Dual specificity tyrosine-phosphorylation-regulated kinase 2 (Homo sapiens) (UniProt Q92630); conditions: Compound concentration 1000.0 nM
Chain of Dual specificity tyrosine-phosphorylation-regulated kinase 2 (Homo sapiens) (Q92630 whole entry): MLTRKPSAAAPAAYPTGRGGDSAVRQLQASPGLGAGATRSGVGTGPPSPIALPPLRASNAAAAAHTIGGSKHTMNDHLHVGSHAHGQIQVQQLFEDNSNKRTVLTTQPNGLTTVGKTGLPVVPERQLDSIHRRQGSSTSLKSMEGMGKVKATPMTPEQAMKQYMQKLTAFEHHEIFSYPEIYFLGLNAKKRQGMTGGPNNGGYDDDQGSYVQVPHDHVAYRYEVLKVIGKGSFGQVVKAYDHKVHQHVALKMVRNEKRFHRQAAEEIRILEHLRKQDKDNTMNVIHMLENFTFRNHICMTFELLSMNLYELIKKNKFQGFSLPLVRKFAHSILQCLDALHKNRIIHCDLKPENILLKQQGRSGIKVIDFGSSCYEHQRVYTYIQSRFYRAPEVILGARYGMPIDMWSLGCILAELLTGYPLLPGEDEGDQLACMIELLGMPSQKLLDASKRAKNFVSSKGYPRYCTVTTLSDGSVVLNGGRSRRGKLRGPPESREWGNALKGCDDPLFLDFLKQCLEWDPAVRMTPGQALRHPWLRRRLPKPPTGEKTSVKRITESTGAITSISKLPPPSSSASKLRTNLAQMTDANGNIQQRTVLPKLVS

[31] = molecular target: Serine/threonine-protein kinase LATS1 (Homo sapiens) (UniProt O95835); conditions: Compound concentration 1000.0 nM
[32] = molecular target: MAP/microtubule affinity-regulating kinase 4 (Homo sapiens) (UniProt Q96L34); conditions: Compound concentration 1000.0 nM
[33] = molecular target: Mitogen-activated protein kinase 10 (Homo sapiens) (UniProt P53779); conditions: Compound concentration 1000.0 nM
[34] = molecular target: Ephrin type-B receptor 6 (Homo sapiens) (UniProt O15197); conditions: Compound concentration 1000.0 nM
Chain of Ephrin type-B receptor 6 (Homo sapiens) (O15197 whole entry): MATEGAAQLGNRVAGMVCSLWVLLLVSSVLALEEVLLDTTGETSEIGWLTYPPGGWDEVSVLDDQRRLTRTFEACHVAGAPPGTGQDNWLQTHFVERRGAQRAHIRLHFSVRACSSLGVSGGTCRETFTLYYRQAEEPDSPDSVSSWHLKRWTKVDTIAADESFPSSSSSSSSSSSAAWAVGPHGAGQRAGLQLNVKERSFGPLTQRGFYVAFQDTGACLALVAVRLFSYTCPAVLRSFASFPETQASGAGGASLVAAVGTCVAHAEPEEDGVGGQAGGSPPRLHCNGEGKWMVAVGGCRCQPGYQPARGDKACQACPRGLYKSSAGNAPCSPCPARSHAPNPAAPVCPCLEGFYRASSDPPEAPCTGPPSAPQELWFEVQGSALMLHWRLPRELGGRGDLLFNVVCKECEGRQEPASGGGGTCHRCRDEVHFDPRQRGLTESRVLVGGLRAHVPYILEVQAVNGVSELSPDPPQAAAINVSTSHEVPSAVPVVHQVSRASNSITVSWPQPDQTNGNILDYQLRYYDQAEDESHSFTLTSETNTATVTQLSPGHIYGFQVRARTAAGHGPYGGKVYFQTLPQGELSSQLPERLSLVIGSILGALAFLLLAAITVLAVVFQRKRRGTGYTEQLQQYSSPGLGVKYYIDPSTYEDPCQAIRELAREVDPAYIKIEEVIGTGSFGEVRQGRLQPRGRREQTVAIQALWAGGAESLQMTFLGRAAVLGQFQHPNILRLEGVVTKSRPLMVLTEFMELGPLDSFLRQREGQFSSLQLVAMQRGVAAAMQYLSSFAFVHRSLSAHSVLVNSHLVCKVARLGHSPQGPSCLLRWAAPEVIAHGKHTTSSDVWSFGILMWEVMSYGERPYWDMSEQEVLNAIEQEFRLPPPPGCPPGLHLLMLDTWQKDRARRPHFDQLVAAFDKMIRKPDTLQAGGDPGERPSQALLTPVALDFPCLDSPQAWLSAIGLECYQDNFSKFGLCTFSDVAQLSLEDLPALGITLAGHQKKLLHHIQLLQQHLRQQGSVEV

[35] = molecular target: Tyrosine-protein kinase ABL1 (Homo sapiens) (UniProt P00519); conditions: Compound concentration 1000.0 nM
[36] = test system: Epidermal growth factor receptor (Homo sapiens), P00533 [G719C]; conditions: Compound concentration 1000.0 nM
[37] = molecular target: NUAK family SNF1-like kinase 2 (Homo sapiens) (UniProt Q9H093); conditions: Compound concentration 1000.0 nM
[38] = molecular target: Casein kinase I isoform alpha-like (Homo sapiens) (UniProt Q8N752); conditions: Compound concentration 1000.0 nM
[39] = molecular target: 5-hydroxytryptamine receptor 2C (Homo sapiens) (UniProt P28335); conditions: Compound concentration 10.0 uM
[40] = molecular target: Macrophage-stimulating protein receptor (Homo sapiens) (UniProt Q04912); conditions: Compound concentration 1000.0 nM
[41] = molecular target: Serine/threonine-protein kinase Nek4 (Homo sapiens) (UniProt P51957); conditions: Compound concentration 1000.0 nM
Chain of Serine/threonine-protein kinase Nek4 (Homo sapiens) (P51957 whole entry, looked up): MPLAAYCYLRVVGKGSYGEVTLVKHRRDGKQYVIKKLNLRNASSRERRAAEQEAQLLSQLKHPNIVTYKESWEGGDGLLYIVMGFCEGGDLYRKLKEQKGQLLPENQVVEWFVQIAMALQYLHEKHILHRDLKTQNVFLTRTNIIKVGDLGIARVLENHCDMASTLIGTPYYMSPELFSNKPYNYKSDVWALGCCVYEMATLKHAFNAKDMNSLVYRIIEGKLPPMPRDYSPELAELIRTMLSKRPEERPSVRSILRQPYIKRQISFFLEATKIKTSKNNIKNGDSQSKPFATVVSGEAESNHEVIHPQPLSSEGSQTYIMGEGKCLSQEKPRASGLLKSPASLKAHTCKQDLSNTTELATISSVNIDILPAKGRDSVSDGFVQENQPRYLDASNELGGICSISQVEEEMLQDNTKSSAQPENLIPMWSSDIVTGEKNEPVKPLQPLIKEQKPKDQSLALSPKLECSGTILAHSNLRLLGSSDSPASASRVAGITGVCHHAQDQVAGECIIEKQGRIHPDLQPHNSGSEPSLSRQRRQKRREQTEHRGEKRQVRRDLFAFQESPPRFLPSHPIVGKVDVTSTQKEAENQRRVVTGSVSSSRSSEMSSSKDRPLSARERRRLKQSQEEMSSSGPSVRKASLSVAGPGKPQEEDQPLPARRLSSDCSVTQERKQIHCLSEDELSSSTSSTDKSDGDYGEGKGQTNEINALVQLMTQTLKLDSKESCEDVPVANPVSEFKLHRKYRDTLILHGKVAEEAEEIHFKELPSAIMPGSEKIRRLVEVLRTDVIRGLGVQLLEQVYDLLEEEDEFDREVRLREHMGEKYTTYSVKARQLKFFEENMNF

[42] = molecular target: Tyrosine-protein kinase SYK (Homo sapiens) (UniProt P43405); conditions: Compound concentration 1000.0 nM
[43] = test system: Phosphatidylinositol 4,5-bisphosphate 3-kinase catalytic subunit alpha isoform (Homo sapiens), P42336 [E545A]; conditions: Compound concentration 1000.0 nM
[44] = molecular target: Tyrosine-protein kinase ABL2 (Homo sapiens) (UniProt P42684); conditions: Compound concentration 1000.0 nM

Cc1cc(-n2nc(Cc3cc(F)cc(C(F)(F)F)c3)nc2C)ccc1C(N)=O [TP-024]
inactive: residual activity [1] 100% | inhibition [2] -2.07% | inhibition [3] 0.68% | residual activity [4] 100% | residual activity [5] 100% | inhibition [6] 9.76% | residual activity [7] 95% | residual activity [8] 100% | residual activity [9] 100% | residual activity [10] 100% | residual activity [11] 100% | residual activity [12] 100% | residual activity [13] 100% | residual activity [14] 100% | residual activity [15] 100% | residual activity [16] 100% | residual activity [17] 100% | residual activity [18] 94% | residual activity [19] 100% | residual activity [20] 85% | residual activity [21] 97% | inhibition [22] 10.5% | residual activity [23] 93% | residual activity [24] 100% | residual activity [25] 83% | residual activity [26] 100% | residual activity [27] 98% | residual activity [28] 100% | residual activity [29] 93% | residual activity [30] 91% | residual activity [31] 100% | residual activity [32] 77% | residual activity [33] 100% | residual activity [34] 100% | residual activity [35] 97% | residual activity [36] 100% | residual activity [37] 100% | residual activity [38] 100% | inhibition [39] -5.34% | residual activity [40] 100% | residual activity [41] 100% | residual activity [42] 87% | residual activity [43] 100% | residual activity [44] 100%

Cc1nc(Cc2cccc(C(F)(F)F)c2)sc1-c1ccc(C(N)=O)nc1 [TP-024n]
inactive: inhibition [2] 11.2% | inhibition [3] -5.26% | residual activity [4] 100% | residual activity [5] 88% | inhibition [6] 8.38% | residual activity [7] 71% | residual activity [8] 81% | residual activity [9] 81% | residual activity [10] 59% | residual activity [11] 100% | residual activity [12] 90% | residual activity [13] 100% | residual activity [14] 100% | residual activity [15] 100% | residual activity [16] 100% | residual activity [17] 100% | residual activity [18] 90% | residual activity [19] 93% | residual activity [20] 94% | residual activity [21] 83% | inhibition [22] 20.4% | residual activity [23] 100% | residual activity [24] 86% | residual activity [25] 83% | residual activity [26] 100% | residual activity [27] 92% | residual activity [28] 100% | residual activity [29] 85% | residual activity [30] 90% | residual activity [31] 100% | residual activity [32] 83% | residual activity [33] 100% | residual activity [34] 100% | residual activity [35] 95% | residual activity [36] 94% | residual activity [37] 100% | residual activity [38] 100% | inhibition [39] 0.93% | residual activity [40] 100% | residual activity [41] 100% | residual activity [42] 100% | residual activity [43] 100% | residual activity [44] 100%
active: residual activity [1] 28%

Source: ChEMBL document CHEMBL4507305, “Data for DCP probe TP-024” (2021)
